What all share (type): toxicity, cell-based
The subject of one data set is HEK-293T. The experiment in a line: Incucyte cell viability with HEK293T. The settings on record: human, 10 µM, compound concentration 10 uM.
Another data set deals with Fibroblast. The data set can be described thus: Incucyte cell viability with human fibroblast. The settings on record: 10 µM, compound concentration 10 uM.
Another data set deals with U2OS. The experiment in a line: Incucyte cell viability with U2OS. The settings on record: human, 10 µM, compound concentration 10 uM.
[1] abbreviates: 0 h, replicate number 1, timepoint 0 hours.
Setting [2] is: 0 h, replicate number 2, timepoint 0 hours.
[3] abbreviates: 24 h, replicate number 2, timepoint 24 hours.
Where [4] appears, read: 6 h, replicate number 1, timepoint 6 hours.
Setting [5] is: 12 h, replicate number 1, timepoint 12 hours.
[6] abbreviates: 18 h, replicate number 1, timepoint 18 hours.
The mark [7] stands for this setting: 24 h, replicate number 1, timepoint 24 hours.
[8] abbreviates: 18 h, replicate number 2, timepoint 18 hours.
Setting [9] is: 6 h, replicate number 2, timepoint 6 hours.
Where [10] appears, read: 12 h, replicate number 2, timepoint 12 hours.

SMILES strings stand for the structures.
Also: filed as whole numbers so only -1 and 0 and 1 occur.

Take `C[C@H](c1ccnc(Nc2nc3ccc(-c4cc(N(C)C)ncn4)cc3[nH]2)c1)N1CCN(C(=O)CC(F)(F)F)CC1` [BAY-985]: the “Growth Rate” value is listed as 0 with HEK-293T (setting [1]); 1 in the data set with HEK-293T (setting [2]); 1 in the data set with HEK-293T (setting [3]); 1 in the data set on Fibroblast (setting [1]); 1 in the data set with Fibroblast (setting [4]); 1 in the data set with Fibroblast (setting [5]). Moreover, the “Growth Rate” value worked out at 1 in the data set on Fibroblast (setting [6]); 1 in the data set with Fibroblast (setting [7]); 0 in the data set on U2OS (setting [1]); 1 with U2OS (setting [4]); 1 in the data set with U2OS (setting [5]); 0 in the data set with U2OS (setting [6]). Moreover, the “Growth Rate” value with U2OS (setting [8]) and in the data set with U2OS (setting [7]) was 1 throughout.

As to `CC(=O)N1CCC(c2ccc(C(=O)NC3=NCCN3)cc2C(F)(F)F)CC1` [BI 0054], the “Growth Rate” value in the data set with HEK-293T (setting [1]) is listed as 1; with HEK-293T (setting [2]), 0; in the data set with HEK-293T (setting [4]), 1; with HEK-293T (setting [9]), 0; in the data set on HEK-293T (setting [5]) it was 0; in the data set on HEK-293T (setting [6]), 1. For the same compound, the “Growth Rate” value with HEK-293T (setting [8]) is on record as 0; in the data set with HEK-293T (setting [7]), 1; with HEK-293T (setting [3]) it was 0; with Fibroblast (setting [1]), 0; in the data set on Fibroblast (setting [4]), 1; in the data set on Fibroblast (setting [9]) it was 0. Also, the “Growth Rate” value was found to be 1 in the data set on Fibroblast (setting [5]); 1 in the data set on Fibroblast (setting [6]); 1 with Fibroblast (setting [7]); 0 with U2OS (setting [1]); 1 in the data set on U2OS (setting [5]); 1 in the data set on U2OS (setting [6]). The “Growth Rate” value in the data set with U2OS (setting [7]) was 1.

In the case of `CN(C)C(=O)Cn1cc(-c2nc(C3(c4ccc(-c5cnc(N)nc5)cc4)CC3)no2)cn1` [BI 0153], the “Growth Rate” value with HEK-293T (setting [2]) worked out at 1; with HEK-293T (setting [4]), 0; with HEK-293T (setting [9]) it was 1; in the data set on HEK-293T (setting [5]) it was 0; in the data set with HEK-293T (setting [10]) it was 1; in the data set on HEK-293T (setting [6]) it was 0. For the same compound, the “Growth Rate” value is 0 in the data set with HEK-293T (setting [7]); 1 in the data set with HEK-293T (setting [3]); 1 in the data set with Fibroblast (setting [1]); 0 with Fibroblast (setting [2]); 0 in the data set with Fibroblast (setting [4]); 0 with Fibroblast (setting [5]). Also, the “Growth Rate” value is listed as 1 in the data set on Fibroblast (setting [10]); 0 with Fibroblast (setting [6]); 0 with Fibroblast (setting [7]); 1 with Fibroblast (setting [3]); 0 with U2OS (setting [1]); 0 in the data set on U2OS (setting [4]). Moreover, the “Growth Rate” value with U2OS (setting [5]) was found to be 0; in the data set on U2OS (setting [6]), 0; with U2OS (setting [7]), 0; in the data set with U2OS (setting [3]), 1.

`CCC(=O)N[C@H]1CC[C@@H](C(=O)N(C)c2ccc(-c3nc4ccccc4o3)cc2)C1` [BI 99179]: the “Growth Rate” value is listed as 1 with HEK-293T (setting [2]); 0 in the data set with HEK-293T (setting [4]); 0 in the data set on HEK-293T (setting [5]); 0 in the data set on HEK-293T (setting [6]); 0 in the data set on HEK-293T (setting [7]); 0 in the data set with Fibroblast (setting [1]). Besides, the “Growth Rate” value in the data set on Fibroblast (setting [2]) came to 1; in the data set on Fibroblast (setting [4]), 1; in the data set with Fibroblast (setting [5]) it was 1; in the data set on Fibroblast (setting [6]) it was 0; with Fibroblast (setting [7]), 0; in the data set with Fibroblast (setting [3]), 1. In addition, the “Growth Rate” value is listed as 0 in the data set on U2OS (setting [1]); 0 in the data set with U2OS (setting [4]); 1 in the data set on U2OS (setting [9]); 1 with U2OS (setting [5]); 1 in the data set with U2OS (setting [6]); 0 with U2OS (setting [8]). In addition, the “Growth Rate” value in the data set with U2OS (setting [7]) turned out to be 1; with U2OS (setting [3]) it was 0.

The record behind these values is ChEMBL document CHEMBL4689842, “EUbOPEN Chemogenomics Library wave 1” (2021).
